{
  "source": "patent US11744791B2",
  "about": "“Cosmetic composition comprising amide-based compound” (Neopharm Co., Ltd., priority 2020, dated 2023)",
  "key": {"PPAR-γ": {"tested_on": "PPAR-γ", "assay": "Analysis of expression level of PPAR-γ (Western blot) in sebocytes", "type": "cell-based", "settings": "human sebocytes, 24 hours", "procedure": "An expression level of PPAR-γ was determined through Western blot in Examples and Comparative Examples of the present invention.\nSpecifically, human sebocytes were cultured in a 12-well plate containing a Dulbecco's modified eagle medium (DMEM)/F12 (1:1) medium supplemented with 10% fetal bovine serum (FBS) to attach 1.5×10^5 (1 mL/well) sebocytes to the 12-well plate. The sebocytes were cultured for 24 hours, and the medium was replaced with a serum-free medium. Then, an experimental group in which the cells were treated with each of the compounds of Examples or Comparative Examples was cultured for 24 hours, and the cells were then recovered. Thereafter, each of these samples was subjected to Western blot to analyze an expression level of PPAR-γ in the sebocytes. A sample (100 μM) of Example 1 or 2 or Comparative Example 1 or 2 including the amide-based compound having a structure shown in the following Table 1 was used as the sample. Also, a sample treated with 10 μM IGF-1 was used as the positive control, and the control in which the cells were not treated with the sample was used as the comparison group."}, "loricrin": {"tested_on": "loricrin", "assay": "Expression level of loricrin gene in keratinocytes (Real-Time PCR)", "type": "cell-based, human", "settings": "sample 100 μM, 24 hours", "procedure": "(§1) To determine effects of the samples of Examples and Comparative Examples of the present invention on promotion of expression of moisturizing factors, expression levels of filaggrin and loricrin were measured.\n(§2) Specifically, keratinocytes commercially available from Invitrogen Corp. were cultured for a predetermined period of time in an EpiLife medium (keratinocyte growth media:keratinocyte growth medium) supplemented with a human keratinocyte growth supplement (HKGS), subcultured three times, and then used. The keratinocytes which were subcultured 3 times were cultured to a confluence of 70 to 80% in a 6-well plate, and each of the wells was separately treated with each of the samples. Thereafter, the cells were cultured for a total of 24 hours. RNA of the keratinocytes was extracted from the cultured cells using an easy BLUE reagent, and cDNA was synthesized using a SuperScript reverse transcriptase III kit. A 7500 Fast Real-Time PCR for genetic comparison was performed using a 2×TaqMan universal PCR mixture (10 μL), a 20×TaqMan expression assay mix (1 μL), cDNA (50 ng), and primers (Filaggrin: Hs00856927_g1*, Loricrin: Hs01894962_s1*). Also, a sample treated with 10 μM IGF-1 was used as the positive control, and the control in which the cells were not treated with the sample was used as the comparison group."}, "filaggrin": {"tested_on": "filaggrin", "assay": "Expression level of filaggrin gene in keratinocytes (Real-Time PCR)", "type": "cell-based, human", "settings": "sample 100 μM, 24 hours", "procedure": "as §1, §2"}, "CD44": {"tested_on": "CD44", "assay": "Analysis of expression level of CD44 in adipose tissue-derived mesenchymal stem cells", "type": "cell-based, human", "settings": "hADSCs, sample 100 μM", "procedure": "For flow cytometric analysis of the adipose tissue-derived stem cells of Examples and Comparative Examples of the present invention, an expression level of CD44 was measured. For this purpose, each of the samples was added to each medium. A sample (100 μM) of Example 1 or 2 or Comparative Example 1 or 2 including the amide-based compound having a structure shown in the following Table 1. Also, a sample treated with 10 μM IGF-1 was used as the positive control, and the control in which the cells were not treated with the sample was used as the comparison group.\nSpecifically, RNA was isolated from human adipose tissue-derived mesenchymal stem cells (hADSCs) according to the manufacturer's instructions using an easy BLUE reagent. The isolated RNA was dissolved in distilled water supplemented with diethyl procarbonate (DEPC), and the absorbance was measured at 260 nm, and a concentration of the RNA was quantified, and then used for experiments. Then, an expression level of CD44 in the adipose tissue-derived stem cells was analyzed."}},
  "data": [
    {"compound": "IGF-1: positive control, sample treated with 10 μM IGF-1 [reference compound]", "values": [
      {"measurement": "expression of PPAR-γ (in words)", "setting": "PPAR-γ; IGF-1 10 μM, samples 100 μM", "result": "promoted"}
    ]},
    {"compound": "CCCCCCCCCC(=O)NC(CO)CO", "note": "[Example 1, N-(2-hydroxy-1-(hydroxymethyl)ethyl)decanamide]", "values": [
      {"measurement": "enhanced expression level of loricrin, compared to the control", "setting": "loricrin", "result": "≥ 400", "unit": "%"},
      {"measurement": "enhanced expression level of filaggrin, compared to the control", "setting": "filaggrin", "result": "≥ 300", "unit": "%"},
      {"measurement": "effect of improving the expression of PPAR-γ", "setting": "PPAR-γ; sample 100 μM", "result": 128.4, "unit": "%"}
    ]},
    {"compound": "CCCCCCCC(=O)NCCO", "note": "[Comparative Example 2, N-(2-hydroxyethyl)octanamide, reference compound]", "values": [
      {"measurement": "expression level of CD44 (in words), compared to the control", "setting": "CD44", "result": "lower expression level of CD44"},
      {"measurement": "inhibited the expression of PPAR-γ, compared to the control", "setting": "PPAR-γ; sample 100 μM", "result": 75.5, "unit": "%"}
    ]},
    {"compound": "CCCCCC(=O)NCC(O)CO", "note": "(stereo not shown) [Example 2, N-(2,3-dihydroxypropyl)hexanamide]", "values": [
      {"measurement": "effect of improving the expression of PPAR-γ", "setting": "PPAR-γ; sample 100 μM", "result": 140.8, "unit": "%"}
    ]}
  ]
}
